Patent US5336673A, “3-substituted cephem compounds” (priority 1990, dated 1994)
Values after ≈ are worked out from the molar mass of the structure shown. Where two headings read alike, the source gives them in different places.

What was measured:
[1] = system: Streptococcus pyogenes A 77; assay: Antibacterial activity, MIC by Agar dilution method, standard test strain 2; type: cell-based; conditions: A77, 10^7 CFU/ml, 37° C., 18 hours
Protocol: (§1) The antibacterial activity was determined by an Agar dilution method as described below.
(§2) That is, the two-fold serial dilutions of the antibacterial compounds (1000 μg compound/ml) were prepared and dispersed in Muller Hinton Agar in a petri dish to a concentration of 100~0.002 μg/ml. The culture broths of standard test strains were inoculated on the medium to a concentration 10^7 CFU/ml, and incubated at 37° C. for 18 hours. The concentration of compounds(I) at which the strains were not grown was regarded as minimum inhibition concentration (MIC).
(§3) The results of antibacterial activity test of the representative examples of the compound (I) against 20 standard test strains shown in terms of MIC were indicated in Table 1.
2. Streptococcus pyogenes A 77

[2] = system: Pseudomonas aeruginosa 9027; assay: Antibacterial activity, MIC by Agar dilution method, standard test strain 12; type: cell-based; conditions: 10^7 CFU/ml, 37° C., 18 hours
Protocol: as §1, §2, §3
12. Pseudomonas aeruginosa 9027

[3] = system: Pseudomonas aeruginosa 1771; assay: Antibacterial activity, MIC by Agar dilution method, standard test strain 14; type: cell-based; conditions: 10^7 CFU/ml, 37° C., 18 hours
Protocol: as §1, §2, §3
14. Pseudomonas aeruginosa 1771

Escherichia coli DC O = assay: Antibacterial activity, MIC by Agar dilution method, standard test strain 8; type: cell-based
Protocol: as §1, §2, §3

Escherichia coli 1507E = assay: Antibacterial activity, MIC by Agar dilution method, standard test strain 11; type: cell-based; conditions: Escherichia coli 1507E; 10^7 CFU/ml, 37° C., 18 hours; read-out: MIC
Protocol: as §1, §2, §3

Klebsiella oxytoca 1082E = assay: Antibacterial activity, MIC by Agar dilution method, standard test strain 17; type: cell-based; conditions: 10^7 CFU/ml, 37° C., 18 hours
Protocol: as §1, §2, §3

Escherichia coli DC 2 = assay: Antibacterial activity, MIC by Agar dilution method, standard test strain 9; type: cell-based; conditions: DC2; Escherichia coli DC 2; 10^7 CFU/ml, 37° C., 18 hours; read-out: MIC
Protocol: as §1, §2, §3

Escherichia coli TEM = assay: Antibacterial activity, MIC by Agar dilution method, standard test strain 10; type: cell-based
Protocol: as §1, §2, §3

[4] = system: Klebsiella aerogenes 1522E; assay: Antibacterial activity, MIC by Agar dilution method, standard test strain 18; type: cell-based; conditions: Klebsiella aerogenes 1522E; 10^7 CFU/ml, 37° C., 18 hours; read-out: MIC
Protocol: as §1, §2, §3
18. Klebsiella aerogenes 1522E

[5] = system: Staphylococcus aureus SG 511; assay: Antibacterial activity, MIC by Agar dilution method, standard test strain 4; type: cell-based; conditions: SG511, 10^7 CFU/ml, 37° C., 18 hours
Protocol: as §1, §2, §3
4. Staphylococcus aureus SG 511

[6] = system: Pseudomonas aeruginosa 1771M; assay: Antibacterial activity, MIC by Agar dilution method, standard test strain 15; type: cell-based; conditions: 18 h
Protocol: as §1, §2, §3
15. Pseudomonas aeruginosa 1771M

Staphyloccus aureus 285 = assay: Antibacterial activity, MIC by Agar dilution method, standard test strain 5; type: cell-based; conditions: 10^7 CFU/ml, 37° C., 18 hours
Protocol: as §1, §2, §3
5. Staphyloccus aureus 285

[7] = system: Streptococcus pyogenes A 308; assay: Antibacterial activity, MIC by Agar dilution method, standard test strain 1; type: cell-based; conditions: A308, 10^7 CFU/ml, 37° C., 18 hours
Protocol: as §1, §2, §3
1. Streptococcus pyogenes A 308

Enterobacter cloacae P99 = assay: Antibacterial activity, MIC by Agar dilution method, standard test strain 19; type: cell-based; conditions: P99, 18 h
Protocol: as §1, §2, §3
19. Enterobacter cloacae P99

[8] = system: Staphylococcus aureus 503; assay: Antibacterial activity, MIC by Agar dilution method, standard test strain 6; type: cell-based; conditions: 10^7 CFU/ml, 37° C., 18 hours
Protocol: as §1, §2, §3
6. Staphylococcus aureus 503

Escherichia coli O 55 = assay: Antibacterial activity, MIC by Agar dilution method, standard test strain 7; type: cell-based
Protocol: as §1, §2, §3

[9] = system: Streptococcus faecium MD 86; assay: Antibacterial activity, MIC by Agar dilution method, standard test strain 3; type: cell-based; conditions: Enterococcus faecium, MD86, 10^7 CFU/ml, 37° C., 18 hours
Protocol: as §1, §2, §3
3. Streptococcus faecium MD 86

[10] = system: Enterobacter cloacae 1321E; assay: Antibacterial activity, MIC by Agar dilution method, standard test strain 20; type: cell-based
Protocol: as §1, §2, §3
20. Enterobacter cloacae 1321E

[11] = system: Pseudomonas aeruginosa 1592E; assay: Antibacterial activity, MIC by Agar dilution method, standard test strain 13; type: cell-based; conditions: 10^7 CFU/ml, 37° C., 18 hours
Protocol: as §1, §2, §3
13. Pseudomonas aeruginosa 1592E

Salmonella typhimurium = assay: Antibacterial activity, MIC by Agar dilution method, standard test strain 16; type: cell-based; conditions: Salmonella enterica, 10^7 CFU/ml, 37° C., 18 hours
Protocol: as §1, §2, §3
16. Salmonella typhimurium

[12] = system: Gram-positive strains as well as Gram-negative strains including Pseudomonas; assay: Antibacterial activity (summary in words); type: cell-based; conditions: Gram-positive and Gram-negative strains
Protocol: as §1, §2

Acute toxcity test = conditions: in vivo, male ICR-mouse, after 1 week
Protocol: Further, in order to illustrate the usefulness of the compounds (I) as a drug, compounds of Examples 12, 18 and 36 were tested for acute toxcity by using 4 weeks-old male ICR-mouse as a test animal.
the compounds were dissolved in physiological saline and phosphate buffered solution (pH 7.0), or if they were […], suspended in carboxymethylcellulose or gum Arabic and then mixed with phosphate buffered solution.
The solution or mixture was administered to the tested animals intravenously or subcutaneously and, after 1 week, the number of surviving animals was calculated.

[13] = Escherichia coli DC O, 10^7 CFU/ml, 37° C., 18 hours, read-out: MIC
[14] = Escherichia coli TEM, 10^7 CFU/ml, 37° C., 18 hours, read-out: MIC
[15] = O55, Escherichia coli O 55, 10^7 CFU/ml, 37° C., 18 hours, read-out: MIC
[16] = Enterobacter cloacae 1321E, 10^7 CFU/ml, 37° C., 18 hours, read-out: MIC

SMILES | MIC [1] [µg/mL] | MIC [2] [µg/mL] | MIC [3] [µg/mL] | MIC (Escherichia coli DC O; [13]) [µg/mL] | MIC (Escherichia coli 1507E) [µg/mL] | MIC (Klebsiella oxytoca 1082E) [µg/mL] | MIC (Escherichia coli DC 2) [µg/mL] | MIC (Escherichia coli TEM; [14]) [µg/mL] | MIC [4] [µg/mL] | MIC [5] [µg/mL] | MIC [6] [µg/mL] | MIC (Staphyloccus aureus 285) [µg/mL] | MIC [7] [µg/mL] | MIC (Enterobacter cloacae P99) [µg/mL] | MIC [8] [µg/mL] | MIC (Escherichia coli O 55; [15]) [µg/mL] | MIC [9] [µg/mL] | MIC [10, 16] [µg/mL] | MIC [11] [µg/mL] | MIC (Salmonella typhimurium) [µg/mL] | further results
CO/N=C(\C(=O)N[C@@H]1C(=O)N2C(C(=O)[O-])=C(C[n+]3nn(N)c4ccccc43)CS[C@H]12)c1nsc(N)n1 [Example 85, (6R,7R)-7-[(Z)-2-(5-amino-1,2,4-thiadiazol-3-yl)-2-methoxyiminoacetamido]-3-[(1-aminobenzotriazol-3-ium)methyl]-ceph-3-em-4-carboxylate] | 0.004 (≈ 0.00754 µM) | 3.12 (≈ 5.89 µM) | 1.56 (≈ 2.95 µM) | 0.025 (≈ 0.0471 µM) | 0.049 (≈ 0.0924 µM) | 0.781 (≈ 1.47 µM) | 0.025 (≈ 0.0471 µM) | 0.025 (≈ 0.0471 µM) | 0.049 (≈ 0.0924 µM) | 0.391 (≈ 0.737 µM) | 1.56 (≈ 2.95 µM) | 1.56 (≈ 2.95 µM) | 0.007 (≈ 0.0132 µM) | 25 (≈ 47.1 µM) | 0.391 (≈ 0.737 µM) | 0.007 (≈ 0.0132 µM) | 100 (≈ 188 µM) | 0.007 (≈ 0.0132 µM) | 3.12 (≈ 5.89 µM) | 0.195 (≈ 0.368 µM) | 
CO/N=C(\C(=O)N[C@@H]1C(=O)N2C(C(=O)[O-])=C(CN3CC[N+](C)(N)CC3)CS[C@H]12)c1csc(N)n1 [Example 11, (6R,7R)-7-[(Z)-2-(2-aminothiazol-4-yl)-2-methoxyiminoacetamido]-3-[(1-amino-1-methyl-4-piperazinium)methyl]-ceph-3-em-4-carboxylate] | 0.007 (≈ 0.0137 µM) | 50 (≈ 97.9 µM) | 25 (≈ 49 µM) |  | 0.781 (≈ 1.53 µM) | 6.25 (≈ 12.2 µM) | 0.781 (≈ 1.53 µM) | 0.391 (≈ 0.766 µM) | 0.391 (≈ 0.766 µM) | 1.56 (≈ 3.06 µM) | 1.56 (≈ 3.06 µM) | 12.5 (≈ 24.5 µM) | 0.013 (≈ 0.0255 µM) | 100 (≈ 196 µM) | 0.781 (≈ 1.53 µM) | 0.195 (≈ 0.382 µM) | > 100 | 0.195 (≈ 0.382 µM) | 50 (≈ 97.9 µM) | 0.391 (≈ 0.766 µM) | antibacterial activity (in words) [12]: excellent antibacterial activity; MIC (Escherichia coli DC O; Escherichia coli, 18 h): 0.781 µg/mL (≈ 1.53 µM)
CO/N=C(\C(=O)N[C@@H]1C(=O)N2C(C(=O)[O-])=C(C[n+]3cn(N)cn3)CS[C@H]12)c1csc(N)n1 [Example 12, (6R,7R)-7-[(Z)-2-(2-aminothiazol-4-yl)-2-methoxyiminoacetamido]-3-[(4-amino-1,2,4-triazol-2-ium)methyl]-ceph-3-em-4-carboxylate] | 0.007 (≈ 0.0146 µM) | 12.5 (≈ 26.1 µM) | 6.25 (≈ 13 µM) | 0.098 (≈ 0.204 µM) | 0.098 (≈ 0.204 µM) | 1.56 (≈ 3.26 µM) | 0.097 (≈ 0.202 µM) |  | 0.049 (≈ 0.102 µM) | 1.56 (≈ 3.26 µM) | 0.195 (≈ 0.407 µM) | 3.12 (≈ 6.52 µM) | 0.007 (≈ 0.0146 µM) | 100 (≈ 209 µM) | 0.781 (≈ 1.63 µM) |  | > 100 |  | 6.25 (≈ 13 µM) | 0.098 (≈ 0.204 µM) | antibacterial activity (in words) [12]: excellent antibacterial activity; MIC (Escherichia coli TEM; Escherichia coli, 18 h): 0.049 µg/mL (≈ 0.102 µM); LD50 at 168 h (Acute toxcity test; sc, Subcutaneous administration): > 6000 mg/kg; LD50 at 168 h (Acute toxcity test; Intravenous administration): > 4000 mg/kg; MIC (Escherichia coli O 55; Escherichia coli, O55, 18 h): 0.025 µg/mL (≈ 0.0521 µM); MIC ([10]; Enterobacter cloacae, 1321E, 18 h): 0.025 µg/mL (≈ 0.0521 µM)
